Experimental data published in patent US7947854B2, “Bis-cationic compounds and use thereof” (The University of Sydney, priority 2003, dated 2011).
Where “and” joins values, the source holds several entries; their conditions need not be identical. Equal values may be shown once.

Columns and labels:
[1] = tested on: Candida albicans ATCC 10231; assay: In vitro antifungal activity, yeasts, NCCLS M27-A; assay type: cell-based; conditions: Candida albicans, ATCC10231; Table 9
Text: (§1) The assay used for yeasts (Candida; Cryptococcus) is that of the National Committee for Clinical Laboratory Standards. 1997. Reference Method for Broth Dilution Antifungal Susceptibility Testing of Yeasts: Approved Standard. NCCLS document M27-A.Villanova, Pa., USA as published in Ghannoum, M. A., A. S. Ibrahim, Y. Fu, M. C. Shafiq, J. E Edwards, Jr. and R. S. Criddle. 1992. Susceptibility testing of Cryptococcus neoformans: A microdilution technique. J. Clin. Microbiol. 30:2881-2886.

[2] = tested on: Cryptococcus neoformans ATCC 90112; assay: In vitro antifungal activity, yeasts, NCCLS M27-A; assay type: cell-based; conditions: Cryptococcus neoformans, ATCC90112; Table 9
Text: as §1

[3] = tested on: membrane-associated phospholipase B (PLB activity); assay: Radiometric assay, membrane-associated PLB activity; assay type: biochemical, Cryptococcus neoformans H99; conditions: pH 4
Method: Fungal isolates and media. […] Isolate H99 was kindly supplied by Dr. Gary Cox (Duke University Medical Center, Durham, N.C., USA), and subcultured onto Sabouraud dextrose agar (SDA) at 30° C.
Cellular disruption to prepare membrane and cytosolic fractions. The cell pellet from the preparation of the supernatant, above, was also frozen at −70° C. After washing twice with imidazole buffer, it was disrupted in the presence of a protease inhibitor cocktail (P 8215 for fungal and yeast cells; 4-(2-aminoethyl)benzenesulfonyl fluoride hydrochloride, 100 mM, 1,10-phenanthroline, 500 mM, pepstatin A, 2.2 mM, E-64, 1.4 mM; Sigma) in a MiniBeadbeater-8 Cell Disrupter (MBB-8; Daintree Scientific, Tasmania, Australia) for three cycles of 1 min, alternating with a 1 min cooling period on ice. The homogenate was centrifuged at 14,000 g for 15 min to obtain the membrane (pellet) and the cytosolic (supernatant) fractions.
Radiometric assay method for phospholipases. Enzyme activities were measured as described previously in a final volume of 125 μL at 37° C. For the determination of secreted PLB activity, carrier dipalmitoyl phosphatidylcholine (DPPC, final concentration 800 μM) and 1,2-di[1-^14C] palmitoyl phosphatidylcholine (20,000 dpm) were dried under nitrogen and suspended in 125 mM imidazole acetate buffer (assay buffer, pH 4.0) by sonication using a Branson 450 sonifier. The reaction time was 22 min, using 1 μg total protein and PLB activity was determined by the rate of decrease of the radiolabelled PC substrate, with appearance of the label in free fatty acid. This assay also simultaneously allows for the determination of phospholipase A, C and D activities. These activities were measured by the appearance of radiolabel from PC in Lyso PC, diacylglycerol and phosphatidic acid, respectively.
All reactions were terminated by adding 0.5 mL of chloroform:methanol (2:1 v/v). The reaction products were extracted by the method as disclosed in Bligh, E. C. and W. J. Dyer. 1959 ‘A rapid method of total lipid extraction and purification.’ Can. J. Biochem. Physiol. 37:911-917, separated by TLC and quantified as previously described. In the case of PLC activity, the TLC plates were developed in petroleum ether (BP 60-80° C.): diethyl ether: acetic acid (90:15:1, v/v/v) instead of chloroform:methanol:water (65:25:4, v/v/v).
All experiments were carried out in duplicate or triplicate. The effects of pH on the various phospholipase activities were measured using 50 mM final concentration of imidazole-acetate buffer (pH range 3-5), MES buffer (pH range 6-8) and glycine buffer (pH 9-10). Controls for non-enzymic breakdown of substrates were included at all pH values. Cations, Triton X-100 and metal chelators were made up as stock solutions in water and diluted to the final concentration in the appropriate assay buffer.
Preparation of inhibitors and use in assays. The following compounds were tested (for structures, see FIG. 2): compound 1, 1,12-bis(tributylphosphonium)dodecane dibromide (Fluka AG, Buchs, Switzerland); compound 2, 1,10-bis(tributylammonium)-decane dibromide; compound 3, 1,12-bis(tributylammonium)do-decane dibromide (both synthesised in-house); compound 4, 1,10-bis(trimethylammonium)decane dibromide [“decamethonium”] (Sigma, St. Louis Mo., USA). All compounds were prepared as stock solutions of 700 μM in assay buffer containing 5 mM EDTA, which was then diluted serially with buffer to obtain solutions of 70, 7, 0.7 and 0.07 μM. In each assay, 45 μL of these solutions was used, and the final volume of 125 μL was made up of substrate, enzyme and buffer. The radiometric assay was carried out as above.

Row | Structure (SMILES) | MIC [1] | MIC [2] | % Inhibition PLB, Membrane-bound Enzyme ([3]; 2.5 μM) | % Inhibition PLB, Membrane-bound Enzyme ([3]; 25 μM) | % Inhibition PLB, Membrane-bound Enzyme ([3]; 250 μM)
1 | CCCC[N+](CCCC)(CCCC)CCCCCCCCCCCC[N+](CCCC)(CCCC)CCCC [1,12-Bis-(tributylammonium)dodecane dichloride] | 2.6 µg/mL and 4.4 µM | 1.3 µg/mL and 2.2 µM |  |  | 
2 | CCCC[P+](CCCC)(CCCC)CCCCCCCCCCCC[P+](CCCC)(CCCC)CCCC [Compound 1, 1,12-bis(tributylphosphonium)dodecane dibromide] |  |  | 0% | 0% | 0%
